{"source": "ChEMBL document CHEMBL1153395", "about": "“Development of a novel virtual screening cascade protocol to identify potential trypanothione reductase inhibitors” (J Med Chem, 2009)", "key": {"Trypanothione reductase [1]": {"target": "Trypanothione reductase (Trypanosoma cruzi, UniProt P28593)", "sequence (P28593 whole entry)": "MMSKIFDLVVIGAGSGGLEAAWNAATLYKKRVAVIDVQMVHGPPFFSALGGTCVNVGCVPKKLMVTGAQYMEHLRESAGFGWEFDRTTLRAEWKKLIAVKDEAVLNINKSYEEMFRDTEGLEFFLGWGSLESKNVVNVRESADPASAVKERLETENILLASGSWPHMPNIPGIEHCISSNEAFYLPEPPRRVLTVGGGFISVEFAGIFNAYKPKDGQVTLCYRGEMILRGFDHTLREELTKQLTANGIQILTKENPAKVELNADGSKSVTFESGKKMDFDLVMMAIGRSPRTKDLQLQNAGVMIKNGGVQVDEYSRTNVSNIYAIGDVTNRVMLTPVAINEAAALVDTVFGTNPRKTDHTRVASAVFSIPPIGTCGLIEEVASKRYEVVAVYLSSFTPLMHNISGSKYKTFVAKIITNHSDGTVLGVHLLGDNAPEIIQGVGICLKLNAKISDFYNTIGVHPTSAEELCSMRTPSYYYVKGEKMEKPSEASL", "test": "Inhibition of Trypanosoma cruzi Trypanothione reductase"}, "Trypanothione reductase [2]": {"target": "Trypanothione reductase (Trypanosoma brucei brucei, UniProt P39051)", "sequence (P39051 whole entry)": "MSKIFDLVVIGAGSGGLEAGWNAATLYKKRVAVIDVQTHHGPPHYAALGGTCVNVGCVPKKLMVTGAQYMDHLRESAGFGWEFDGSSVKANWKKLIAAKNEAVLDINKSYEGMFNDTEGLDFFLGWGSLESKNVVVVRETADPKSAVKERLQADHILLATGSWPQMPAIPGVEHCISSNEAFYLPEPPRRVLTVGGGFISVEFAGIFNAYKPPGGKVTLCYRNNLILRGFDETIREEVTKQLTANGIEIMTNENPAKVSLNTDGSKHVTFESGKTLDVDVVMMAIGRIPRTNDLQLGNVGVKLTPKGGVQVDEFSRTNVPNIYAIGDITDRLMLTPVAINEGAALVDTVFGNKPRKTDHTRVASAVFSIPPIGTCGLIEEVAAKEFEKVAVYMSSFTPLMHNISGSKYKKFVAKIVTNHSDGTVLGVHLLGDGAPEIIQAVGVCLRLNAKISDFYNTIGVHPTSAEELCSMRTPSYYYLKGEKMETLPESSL", "test": "Inhibition of Trypanosoma brucei Trypanothione reductase"}}, "note": "pIC50: −log10 of the molar value."}
{"molecule": "NCCCCC(N)C(=O)Nc1ccc2ccccc2c1", "note": "(configuration not stated)", "values": [{"measurement": "pIC50", "setting": "Trypanothione reductase [1]", "result": "< 4.00"}, {"measurement": "pIC50", "setting": "Trypanothione reductase [2]", "result": "< 4.00"}]}
{"molecule": "CC12CN3CC(C)(C1)C[N+](Cc1cccc(Br)c1)(C3)C2", "values": [{"measurement": "pIC50", "setting": "Trypanothione reductase [1]", "result": "< 4.00"}, {"measurement": "pIC50", "setting": "Trypanothione reductase [2]", "result": "< 4.00"}]}
{"molecule": "O=C(CN1C(=O)C2CC=CCC2C1=O)Nc1ccccc1Sc1ccc(Cl)cc1", "note": "(configuration not stated)", "values": [{"measurement": "pIC50", "setting": "Trypanothione reductase [1]", "result": "< 4.00"}, {"measurement": "pIC50", "setting": "Trypanothione reductase [2]", "result": "< 4.00"}]}
{"molecule": "Cc1ccc(N2CC(C(=O)Nc3ccccc3Sc3ccccc3)CC2=O)cc1", "note": "(configuration not stated)", "values": [{"measurement": "pIC50", "setting": "Trypanothione reductase [1]", "result": "< 4.00"}, {"measurement": "pIC50", "setting": "Trypanothione reductase [2]", "result": "< 4.00"}]}
{"molecule": "C[N+]1(C)CCCC2c3ccccc3Sc3ccc(Cl)cc3C21", "note": "(configuration not stated)", "values": [{"measurement": "pIC50", "setting": "Trypanothione reductase [1]", "result": 4.12}, {"measurement": "pIC50", "setting": "Trypanothione reductase [2]", "result": 4.23}]}
{"molecule": "C[N+]1(Cc2ccccc2)CCC(/N=C/C2C(=O)NC(=O)N(C3CCCCC3)C2=O)CC1", "note": "(configuration not stated)", "values": [{"measurement": "pIC50", "setting": "Trypanothione reductase [1]", "result": 4.34}, {"measurement": "pIC50", "setting": "Trypanothione reductase [2]", "result": "< 4.00"}]}
{"molecule": "O=C(CN1C(=O)NC2(CCCCCC2)C1=O)Nc1ccccc1Sc1ccccc1", "values": [{"measurement": "pIC50", "setting": "Trypanothione reductase [1]", "result": "< 4.00"}, {"measurement": "pIC50", "setting": "Trypanothione reductase [2]", "result": "< 4.00"}]}
{"molecule": "CC1CCCCC12NC(=O)N(CC(=O)Nc1ccccc1Sc1ccccc1)C2=O", "note": "(configuration not stated)", "values": [{"measurement": "pIC50", "setting": "Trypanothione reductase [2]", "result": "< 4.00"}]}
{"molecule": "CC(NS(=O)(=O)c1ccccc1)C(=O)Nc1ccccc1Sc1ccccc1", "note": "(configuration not stated)", "values": [{"measurement": "pIC50", "setting": "Trypanothione reductase [1]", "result": "< 4.00"}, {"measurement": "pIC50", "setting": "Trypanothione reductase [2]", "result": "< 4.00"}]}
{"molecule": "CN(CC(=O)Nc1ccccc1Sc1ccccc1)C1CCCCC1", "values": [{"measurement": "pIC50", "setting": "Trypanothione reductase [1]", "result": 4.25}, {"measurement": "pIC50", "setting": "Trypanothione reductase [2]", "result": 4.33}]}
{"molecule": "CCN1CCN(C2Cc3ccccc3Sc3ccc(Cl)cc32)CC1", "note": "(configuration not stated)", "values": [{"measurement": "pIC50", "setting": "Trypanothione reductase [1]", "result": 4.54}, {"measurement": "pIC50", "setting": "Trypanothione reductase [2]", "result": 4.44}]}
{"molecule": "O=C(CCN1CCN2CCCCC2C1)N1c2ccccc2Sc2ccc(Cl)cc21", "note": "(configuration not stated)", "values": [{"measurement": "pIC50", "setting": "Trypanothione reductase [1]", "result": 4.45}, {"measurement": "pIC50", "setting": "Trypanothione reductase [2]", "result": 4.50}]}
{"molecule": "O=C(CN1CCN(c2ccccc2)CC1)Nc1ccccc1Sc1ccccc1", "values": [{"measurement": "pIC50", "setting": "Trypanothione reductase [1]", "result": "< 4.00"}, {"measurement": "pIC50", "setting": "Trypanothione reductase [2]", "result": "< 4.00"}]}
{"molecule": "CN1CCN(C2=NC(=O)CC(C(=O)Nc3cccc(Cl)c3)N2)CC1", "note": "(configuration not stated)", "values": [{"measurement": "pIC50", "setting": "Trypanothione reductase [1]", "result": "< 4.00"}, {"measurement": "pIC50", "setting": "Trypanothione reductase [2]", "result": "< 4.00"}]}
{"molecule": "CN(C)CCCC1Sc2ccccc2Sc2ccccc21", "note": "(configuration not stated)", "values": [{"measurement": "pIC50", "setting": "Trypanothione reductase [1]", "result": 4.44}, {"measurement": "pIC50", "setting": "Trypanothione reductase [2]", "result": 4.43}]}
{"molecule": "CN1CCCC(CC2Oc3ccccc3Sc3ccccc32)C1", "note": "(configuration not stated)", "values": [{"measurement": "pIC50", "setting": "Trypanothione reductase [1]", "result": 4.94}, {"measurement": "pIC50", "setting": "Trypanothione reductase [2]", "result": 4.84}]}
{"molecule": "NC(=O)C1(N2CCCCC2)CCN(CC(=O)Nc2ccccc2Sc2ccccc2)CC1", "values": [{"measurement": "pIC50", "setting": "Trypanothione reductase [1]", "result": "< 4.00"}, {"measurement": "pIC50", "setting": "Trypanothione reductase [2]", "result": "< 4.00"}]}
{"molecule": "O=C(CN1CCCCCC1)N1c2ccccc2Sc2ccc(Cl)cc21", "values": [{"measurement": "pIC50", "setting": "Trypanothione reductase [1]", "result": 4.10}, {"measurement": "pIC50", "setting": "Trypanothione reductase [2]", "result": "< 4.00"}]}
{"molecule": "c1ccc2c(c1)Sc1ccccc1N2CC1CN2CCC1CC2", "note": "(configuration not stated) [MEQUITAZINE]", "values": [{"measurement": "pIC50", "setting": "Trypanothione reductase [1]", "result": 4.66}, {"measurement": "pIC50", "setting": "Trypanothione reductase [2]", "result": 4.27}]}
